{
  "source": "patent US5578570A",
  "about": "“Method of treating septic shock using thymosin β4” (The George Washington University Medical Center, priority 1994, dated 1996)",
  "assay_type_in_all_cases": "in vivo",
  "key": {"PAF": {"system": "PAF", "assay": "PAF blood levels in mice after lethal dose of endotoxin", "details": "endotoxin 60 mg/kg + Tβ4 100 μg administered simultaneously; for PAF (plasma levels): Table IX; for PAF (serum levels): Table XII", "description": "(§1) Using the same methods and materials as in examples 1-3, the effect which Tβ4 has on blood levels of IL-1α, TNF-α, PAG, Txβ2 and 6-keto-PGF1 α, which are pathological mediators of endotoxin induced lethality, was studied."}, "glutathione": {"system": "glutathione", "assay": "Glutathione levels in a rat septic shock model", "details": "for RBC GSH: rats with septic shock + 1 mg/rat × 3", "description": "(§2) Using a septic shock model in rats (Sprague-Dawley, male, 200-225 g each), the effect of thymosin β4 alone and together with antibiotics was studied. Peritonitis was induced in rats in the following way. A 1-cm incision was made into the peritoneal which exposed the cecum. A tight ligature was placed around the cecum with 4-0 suture distal to the insertion of the small bowel, forming an area of devitalized tissue while maintaining bowel continuity. A puncture wound was made with 16-gauge needle into the anti-mesenteric surface of the cecum and a small amount of fecal contents was expressed through the wound. The cecum was replaced into the peritoneal cavity, and the anterior peritoneal wall and skin were closed with surgical staples. Each animal was given a bolus of normal saline (15 ml/kg) for hydration and allowed to recover overnight.\n(§3) The results presented in Tables XV to XVIII below show effects of Tβ4 respectively on rat cytokine levels, blood malonyldialdehyde levels, glutathione levels and arachidonic acid metabolic levels."}, "Rats with Septic Shock": {"system": "Rats with Septic Shock", "assay": "Survival of Sprague-Dawley rats in septic shock model (peritonitis)", "details": "for Survival of rats (number alive): Table XIV, septic shock + antibiotic (gentamicin sulfate, 1 mg/rat) + thymosin β4 1 mg/rat × 3 (0, 2, 4 hr post induction of peritonitis), 10 rats at 0 hr; for Number of Rats Alive: septic shock + Tβ4 1 mg/rat × 3, 10 rats at 0 h", "description": "as §2"}, "6-keto-PGF1": {"system": "6-keto-PGF1", "assay": "6-keto-PGF1 levels in a septic shock model in rat", "details": "rats with septic shock + Tβ4 1 mg/rat × 3", "description": "as §2, §3"}, "[1]": {"system": "blood free radical levels", "assay": "Blood free radical levels", "details": "compared with SOD"}, "TNFα": {"system": "TNFα", "assay": "TNFα levels in a septic shock model in rat", "details": "rats with septic shock + Tβ4 1 mg/rat × 3", "description": "as §2, §3"}, "malonyldialdehyde": {"system": "malonyldialdehyde", "assay": "Lipid peroxidation (blood malonyldialdehyde) in a septic shock model in rat", "details": "for Blood Levels of malonyldialdehyde: rats with septic shock + Tβ4 1 mg/rat × 3", "description": "as §2, §3"}, "cGMP": {"system": "cGMP", "assay": "cGMP cerebellar levels in mice treated with lethal doses of endotoxin", "details": "endotoxin 60 mg/kg i.p. + Tβ4 0.8 mg/kg i.p.", "description": "(§4) The results presented in Tables III-V below show effects of Tβ4 respectively on mice cerebellar cGMP levels, blood serum TNF-α levels, and blood serum TNF-α and IL-1α levels."}, "T × β2": {"system": "T × β2", "assay": "T×β2 plasma levels in mice after lethal dose of endotoxin", "details": "Table X, endotoxin 60 mg/kg + Tβ4 100 μg administered simultaneously", "description": "as §1"}, "IL1 α": {"system": "IL1 α", "assay": "IL1α levels in a septic shock model in rat", "details": "rats with septic shock + Tβ4 1 mg/rat × 3", "description": "as §2, §3"}, "IL-1α": {"system": "IL-1α", "assay": "Serum IL-1α levels in mice treated with lethal dose of endotoxin", "details": "Table V; pretreatment (SOD 3.3 × 10^4 μ/kg, 30 minutes before endotoxin; Tβ4 100 μg/mice); blood collected 1 hr after endotoxin", "description": "as §4, §1"}, "endotoxic mice": {"system": "endotoxic mice", "assay": "Survival of Swiss Webster mice following lethal endotoxin dose and Tβ4", "details": "for Survival (No. mice alive): Table I, 7 mice at 0 hrs; for Number of Mice Alive: Table II, 8 mice at 0 hr.", "experimental": "Swiss-Webster mice 4-6 weeks of age (20-25 g) were housed 6 per cage. The mice were divided into 2 groups: endotoxic mice (endotoxin 60 mg/kg i.p. in acute treatment) and endotoxic mice treated with Tβ4, 5 minutes and 2, 4, 6, 8, 10, 12, 14, 16, 18, 20, 22, 24 hours post administration of the endotoxin. Survival was recorded 2 times a day for 7 days.\nSwiss-Webster mice 4-6 weeks of age (20-25 g) were divided into groups as follows.\n1. Mice treated with a lethal dose of endotoxin (60 mg/kg).\n2. […]\n3. […]\n4. […]"}, "[2]": {"details": "during sepsis, with Tβ4 administration"}},
  "data": [
    {"substance": "Thymosin β4 [Tβ4]", "values": [
      {"measurement": "PAF (plasma levels)", "setting": "PAF; 0.5 hr.", "value": "63 ± 7", "unit": "pg/mL"},
      {"measurement": "PAF (plasma levels)", "setting": "PAF; 1 hr", "value": "161 ± 17", "unit": "pg/mL"},
      {"measurement": "PAF (plasma levels)", "setting": "PAF; 2 hr", "value": "66 ± 5", "unit": "pg/mL"},
      {"measurement": "PAF (plasma levels)", "setting": "PAF; 3 hr", "value": "46 ± 5", "unit": "pg/mL"},
      {"measurement": "PAF (serum levels)", "setting": "PAF; 1 hr", "value": 807, "unit": "pg/mL"},
      {"measurement": "PAF (serum levels)", "setting": "PAF; 3 hr", "value": 591, "unit": "pg/mL"},
      {"measurement": "PAF (serum levels)", "setting": "PAF; 5 hr", "value": 496, "unit": "pg/mL"},
      {"measurement": "circulating blood levels of glutathione (in words)", "setting": "glutathione; [2]", "value": "returns circulatory gluthathine levels to normal or about normal"},
      {"measurement": "RBC GSH", "setting": "glutathione; first value column", "value": "1.45 ± 0.11", "unit": "μmoles/ml cells"},
      {"measurement": "RBC GSH", "setting": "glutathione; second value column", "value": "1.39 ± 0.12", "unit": "μmoles/ml cells"},
      {"measurement": "Survival of rats (number alive)", "setting": "Rats with Septic Shock; 24 hr", "value": 4},
      {"measurement": "Survival of rats (number alive)", "setting": "Rats with Septic Shock; 48 hr", "value": 3},
      {"measurement": "Survival of rats (number alive)", "setting": "Rats with Septic Shock; 72 hr", "value": 3},
      {"measurement": "Number of Rats Alive", "setting": "Rats with Septic Shock; Table XIX, 24 h", "value": 3},
      {"measurement": "Number of Rats Alive", "setting": "Rats with Septic Shock; Table XIX, 48 h", "value": 3},
      {"measurement": "Number of Rats Alive", "setting": "Rats with Septic Shock; Table XIX, 72 h", "value": 3},
      {"measurement": "Number of Rats Alive", "setting": "Rats with Septic Shock; Table XX, 24 h", "value": 4},
      {"measurement": "Number of Rats Alive", "setting": "Rats with Septic Shock; Table XX, 48 h", "value": 3},
      {"measurement": "Number of Rats Alive", "setting": "Rats with Septic Shock; Table XX, 72 h", "value": 3},
      {"measurement": "6-keto-PGF1", "setting": "6-keto-PGF1", "value": "829 ± 59", "unit": "pg/mL"},
      {"measurement": "blood free radical levels (in words)", "setting": "[1]", "value": "reduce blood free radical levels almost as much as SOD"},
      {"measurement": "TNFα", "setting": "TNFα", "value": "1259 ± 138", "unit": "pg/mL"},
      {"measurement": "peroxidation of lipids in blood (malonyldialdehyde), in words", "setting": "malonyldialdehyde; [2]", "value": "returned to normal or about normal"},
      {"measurement": "Blood Levels of malonyldialdehyde", "setting": "malonyldialdehyde; first value column", "value": "19.6 ± 1.7", "unit": "nNol MDA"},
      {"measurement": "Blood Levels of malonyldialdehyde", "setting": "malonyldialdehyde; second value column", "value": "16.8 ± 1.5", "unit": "nNol MDA"},
      {"measurement": "Cerebellar cortex cyclic GMP", "setting": "cGMP", "value": "12.1 ± 0.9", "unit": "pmol per mg/protein"},
      {"measurement": "T × β2 (plasma levels)", "setting": "T × β2; 0.5 hr.", "value": "209 ± 9,5 pg/ml"},
      {"measurement": "T × β2 (plasma levels)", "setting": "T × β2; 1 hr", "value": "607 ± 53", "unit": "pg/mL"},
      {"measurement": "T × β2 (plasma levels)", "setting": "T × β2; 2 hr", "value": "196 ± 18", "unit": "pg/mL"},
      {"measurement": "T × β2 (plasma levels)", "setting": "T × β2; 3 hr", "value": "112 ± 9", "unit": "pg/mL"},
      {"measurement": "IL1 α", "setting": "IL1 α", "value": "853 ± 62", "unit": "pg/mL"},
      {"measurement": "Serum IL-1α", "setting": "IL-1α", "value": "298 ± 20", "unit": "pg/mL"},
      {"measurement": "protective activity on endotoxin lethality (in words)", "setting": "endotoxic mice; 10 μg Tβ4", "value": "sometimes shown positive activity"},
      {"measurement": "Survival (No. mice alive)", "setting": "endotoxic mice; endotoxin 60 mg/kg + Tβ4 100 μg 1x, 24 hrs", "value": 4},
      {"measurement": "Survival (No. mice alive)", "setting": "endotoxic mice; endotoxin 60 mg/kg + Tβ4 100 μg 1x, 48 hrs", "value": 3},
      {"measurement": "Survival (No. mice alive)", "setting": "endotoxic mice; endotoxin 60 mg/kg + Tβ4 100 μg 1x, 72 hrs", "value": 3},
      {"measurement": "Survival (No. mice alive)", "setting": "endotoxic mice; endotoxin 60 mg/kg + Tβ4 100 μg 2x, 24 hrs", "value": 4},
      {"measurement": "Survival (No. mice alive)", "setting": "endotoxic mice; endotoxin 60 mg/kg + Tβ4 100 μg 2x, 48 hrs", "value": 4},
      {"measurement": "Survival (No. mice alive)", "setting": "endotoxic mice; endotoxin 60 mg/kg + Tβ4 100 μg 2x, 72 hrs", "value": 4},
      {"measurement": "Survival (No. mice alive)", "setting": "endotoxic mice; endotoxin 60 mg/kg + Tβ4 100 μg 3x, 24 hrs", "value": 7},
      {"measurement": "Survival (No. mice alive)", "setting": "endotoxic mice; endotoxin 60 mg/kg + Tβ4 100 μg 3x, 48 hrs", "value": 7},
      {"measurement": "Survival (No. mice alive)", "setting": "endotoxic mice; endotoxin 60 mg/kg + Tβ4 100 μg 3x, 72 hrs", "value": 7},
      {"measurement": "Number of Mice Alive", "setting": "endotoxic mice; endotoxin 60 mg/kg + Tβ4 100 μg 3x, 24 hr.", "value": 8},
      {"measurement": "Number of Mice Alive", "setting": "endotoxic mice; endotoxin 60 mg/kg + Tβ4 100 μg 3x, 48 hr.", "value": 8}
    ]}
  ]
}
